Each structure is given as a SMILES string.

This test has as its target T1, human PAH with the R408W mutation (A375 R408W cells) (Homo sapiens, UniProt P00439, R408W).
T1 construct: expressed in transfected cells
T1 sequence (P00439 1-452 R408W): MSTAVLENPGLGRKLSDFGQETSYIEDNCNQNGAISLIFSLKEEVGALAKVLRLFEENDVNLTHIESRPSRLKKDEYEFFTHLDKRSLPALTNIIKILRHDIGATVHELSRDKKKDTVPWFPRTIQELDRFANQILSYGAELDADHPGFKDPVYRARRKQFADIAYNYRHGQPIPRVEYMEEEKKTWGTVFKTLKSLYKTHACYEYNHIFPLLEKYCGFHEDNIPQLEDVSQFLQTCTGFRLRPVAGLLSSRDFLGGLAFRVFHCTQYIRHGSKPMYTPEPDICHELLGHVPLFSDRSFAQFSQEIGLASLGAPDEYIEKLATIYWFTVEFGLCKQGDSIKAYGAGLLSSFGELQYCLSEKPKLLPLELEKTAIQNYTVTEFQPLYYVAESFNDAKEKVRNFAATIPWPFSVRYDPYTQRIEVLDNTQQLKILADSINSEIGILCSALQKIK
Put plainly: Cell Based Phenylalanine Flux Assay. Particulars: 24 hrs with compound, then 20 μM sepiapterin and 800 μM 13C9,15N-Phenylalanine for 4 hours, 13C-Tyrosine by LC-MS, average where tested multiple times. The gist of the method: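 A375 cells stably expressing human PAH R408W treated 24 h at 37° C with a 10-point 2-fold dose curve in duplicate, 0.5% DMSO. Then 20 μM sepiapterin and 800 μM 13C9,15N-Phe added for 4 h; 13C-Tyr in media measured by LC-MS to give AC50.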

The mark [1] stands for this setting: A375 cells expressing R408W PAH.

In the case of `COc1cccc2nc([C@H]3c4nc[nH]c4CCN3C(=O)c3nc(C)nn3C)oc12` [Example 910, (R)-(1,3-dimethyl-1H-1,2,4-triazol-5-yl)(4-(7-methoxybenzo[d]oxazol-2-yl)-6,7-dihydro-1H-imidazo[4,5-c]pyridin-5(4H)-yl)methanone], the AC50 (A375 R408W cells) is at least 5 µM.

For `Cc1ccc2oc(C3c4nc[nH]c4CCN3C(=O)c3cnn4cc(CCN(C)C)ccc34)nc2c1` (centres unmarked), under setting [1], the concentration at half-maximal activity (AC50) was 1 to 5 µM.

Regarding `COc1ccc2oc([C@H]3c4nc[nH]c4CCN3C(=O)c3nnc(-c4ccccn4)o3)nc2c1` [Example 556, (R)-(4-(5-methoxybenzo[d]oxazol-2-yl)-6,7-dihydro-1H-imidazo[4,5-c]pyridin-5(4H)-yl)(5-(pyridin-2-yl)-1,3,4-oxadiazol-2-yl)methanone], the AC50 (A375 R408W cells) lay in the range of 1 to 5 µM.

In the case of `Cn1nccc1C(=O)N1CCc2[nH]cnc2C1c1nc2cccc(F)c2o1` (centres unmarked), the concentration at half-maximal activity (AC50) under setting [1] was in the range of 1 to 5 µM.

As for `O=C(c1cnco1)N1CCc2[nH]cnc2C1c1nc2c(F)c(F)ccc2o1` (centres unmarked), under setting [1], the AC50 is at least 5 µM.

For `Cn1nc(C(C)(C)O)nc1C(=O)N1CCc2[nH]cnc2C1c1nc2cccc(F)c2o1` (centres unmarked), the AC50 under setting [1] was at least 5 µM.

As to `O=C(c1nnc(-c2cnn(C(F)F)c2)o1)N1CCc2[nH]cnc2[C@@H]1c1nc2ccccc2o1` [Example 842, (R)-(4-(benzo[d]oxazol-2-yl)-6,7-dihydro-1H-imidazo[4,5-c]pyridin-5(4H)-yl)(5-(1-(difluoromethyl)-1H-pyrazol-4-yl)-1,3,4-oxadiazol-2-yl)methanone], the concentration at half-maximal activity (AC50) (A375 R408W cells) lay within 1 to 5 µM.

On to `Cn1cnc(-c2nc(C(F)(F)F)c(C(=O)N3CCc4[nH]cnc4[C@H]3c3nc4cc(F)ccc4o3)o2)c1` [Example 790, (S)-(4-(5-fluorobenzo[d]oxazol-2-yl)-6,7-dihydro-1H-imidazo[4,5-c]pyridin-5(4H)-yl)(2-(1-methyl-1H-imidazol-4-yl)-4-(trifluoromethyl)oxazol-5-yl)methanone], for which the concentration at half-maximal activity (AC50) (A375 R408W cells) fell in the range of 0.5 to 1 µM.

Turning to `Cc1nc(C(C)(C)C#N)oc1C(=O)N1CCc2[nH]cnc2[C@@H]1c1nc2cc(F)ccc2o1` [Example 186, (R)-2-(5-(4-(5-fluorobenzo[d]oxazol-2-yl)-4,5,6,7-tetrahydro-1H-imidazo[4,5-c]pyridine-5-carbonyl)-4-methyloxazol-2-yl)-2-methylpropanenitrile], the AC50 (A375 R408W cells) lay in the range of 1 to 5 µM.

Take `O=C(c1nnc(-c2ccn(C(F)F)n2)o1)N1CCc2[nH]cnc2[C@@H]1c1nc2c(F)ccc(F)c2o1` [Example 816, (R)-(4-(4,7-difluorobenzo[d]oxazol-2-yl)-6,7-dihydro-1H-imidazo[4,5-c]pyridin-5(4H)-yl)(5-(1-(difluoromethyl)-1H-pyrazol-3-yl)-1,3,4-oxadiazol-2-yl)methanone]: the AC50 (A375 R408W cells) was at most 0.5 µM.

On to `O=C(c1cnc(-c2ccccn2)o1)N1CCc2[nH]cnc2[C@H]1c1nc2cc(F)ccc2o1` [Example 11, (S)-(4-(5-fluorobenzo[d]oxazol-2-yl)-6,7-dihydro-1H-imidazo[4,5-c]pyridin-5(4H)-yl)(2-(pyridin-2-yl)oxazol-5-yl)methanone], for which the half-maximal activity concentration (AC50) (A375 R408W cells) fell in the range of 0.5 to 1 µM.

Take `Cc1ccc2oc([C@@H]3c4nc[nH]c4CCN3C(=O)c3nnc(-c4ncccc4F)o3)nc2c1` [Example 653, (S)-(5-(3-fluoropyridin-2-yl)-1,3,4-oxadiazol-2-yl)(4-(5-methylbenzo[d]oxazol-2-yl)-6,7-dihydro-1H-imidazo[4,5-c]pyridin-5(4H)-yl)methanone]: the half-maximal activity concentration (AC50) (A375 R408W cells) is at most 0.5 µM.

Consider `CC(C)(O)c1cc(C(=O)N2CCc3[nH]cnc3C2c2nc3ccc(F)cc3o2)on1` (single isomer, unassigned) [4R enantiomer of 2-{5-[4-(6-fluoro-1,3-benzoxazol-2-yl)-1H,4], for which the concentration at half-maximal activity (AC50) under setting [1] is at least 5 µM.

Consider `Cc1ccc2nc([C@H]3c4nc[nH]c4CCN3C(=O)c3oc(C(C)(C)O)nc3C(F)F)oc2c1` [Example 316, (R)-(4-(difluoromethyl)-2-(2-hydroxypropan-2-yl)oxazol-5-yl)(4-(6-methylbenzo[d]oxazol-2-yl)-6,7-dihydro-1H-imidazo[4,5-c]pyridin-5(4H)-yl)methanone], for which the AC50 (A375 R408W cells) was in the range of 1 to 5 µM.

Take `CCn1cnnc1C(=O)N1CCc2[nH]cnc2[C@@H]1c1nc2cc(F)ccc2o1` [Example 886, (R)-(4-ethyl-4H-1,2,4-triazol-3-yl)(4-(5-fluorobenzo[d]oxazol-2-yl)-6,7-dihydro-1H-imidazo[4,5-c]pyridin-5(4H)-yl)methanone]: the AC50 (A375 R408W cells) was 1 to 5 µM.

Consider `O=C(c1cnco1)N1CCc2[nH]cnc2[C@@H]1c1nc2cc(F)cc(F)c2o1` [Example 576, (R)-(4-(5,7-difluorobenzo[d]oxazol-2-yl)-6,7-dihydro-1H-imidazo[4,5-c]pyridin-5(4H)-yl)(oxazol-5-yl)methanone], for which the AC50 (A375 R408W cells) was in the range of 1 to 5 µM.

Turning to `O=C(CCc1nccs1)N1CCc2[nH]cnc2C1c1nc2ccc(F)cc2o1` (centres unmarked), the concentration at half-maximal activity (AC50) under setting [1] was 1 to 5 µM.

For `Cn1cc(-c2nnc(C(=O)N3CCc4[nH]cnc4[C@@H]3c3nc4cc(F)cc(F)c4o3)o2)cn1` [Example 666, (R)-(4-(5,7-difluorobenzo[d]oxazol-2-yl)-6,7-dihydro-1H-imidazo[4,5-c]pyridin-5(4H)-yl)(5-(1-methyl-1H-pyrazol-4-yl)-1,3,4-oxadiazol-2-yl)methanone], under “A375 R408W cells”, the half-maximal activity concentration (AC50) was at most 0.5 µM.

Take `O=C(c1nnc(-c2cnccn2)o1)N1CCc2[nH]cnc2[C@@H]1c1nc2cc(F)ccc2o1` [Example 627, (R)-(4-(5-fluorobenzo[d]oxazol-2-yl)-6,7-dihydro-1H-imidazo[4,5-c]pyridin-5(4H)-yl)(5-(pyrazin-2-yl)-1,3,4-oxadiazol-2-yl)methanone]: the half-maximal activity concentration (AC50) (A375 R408W cells) was 1 to 5 µM.

On to `Cc1c(F)ccc2oc([C@@H]3c4nc[nH]c4CCN3C(=O)c3oc(C(C)(C)O)nc3C(F)F)nc12` [Example 719, (S)-(4-(difluoromethyl)-2-(2-hydroxypropan-2-yl)oxazol-5-yl)(4-(5-fluoro-4-methylbenzo[d]oxazol-2-yl)-6,7-dihydro-1H-imidazo[4,5-c]pyridin-5(4H)-yl)methanone], for which, for the setting “A375 R408W cells”, the AC50 was at most 0.5 µM.

With `O=C(c1cnn2cc(F)c(Cl)cc12)N1CCc2[nH]cnc2[C@H]1c1nc2cc(F)ccc2o1` [Example 219, (S)-(5-chloro-6-fluoropyrazolo[1,5-a]pyridin-3-yl)(4-(5-fluorobenzo[d]oxazol-2-yl)-6,7-dihydro-1H-imidazo[4,5-c]pyridin-5(4H)-yl)methanone], under “A375 R408W cells”, the AC50 was at most 0.5 µM.

Consider `O=C(c1cnn2cc(OCCn3cccn3)ccc12)N1CCc2[nH]cnc2[C@H]1c1nc2cc(F)ccc2o1` (single isomer, unassigned), for which, under setting [1], the half-maximal activity concentration (AC50) lay in the range of 1 to 5 µM.

On to `O=C(c1cn(-c2ccccn2)nc1Cl)N1CCc2[nH]cnc2C1c1nc2cc(F)ccc2o1` (centres unmarked), for which the AC50 under setting [1] lay within 1 to 5 µM.

With `O=C(c1oc(N2CCC(F)CC2)nc1C(F)F)N1CCc2[nH]cnc2[C@H]1c1nc2cccc(F)c2o1` [Example 676, (S)-(4-(difluoromethyl)-2-(4-fluoropiperidin-1-yl)oxazol-5-yl)(4-(7-fluorobenzo[d]oxazol-2-yl)-6,7-dihydro-1H-imidazo[4,5-c]pyridin-5(4H)-yl)methanone], the AC50 (A375 R408W cells) is at most 0.5 µM.

On to `Cc1ccc2nc([C@@H]3c4nc[nH]c4CCN3C(=O)c3nnc(-c4cc[nH]n4)o3)oc2c1` [Example 359, (S)-(5-(1H-pyrazol-3-yl)-1,3,4-oxadiazol-2-yl)(4-(6-methylbenzo[d]oxazol-2-yl)-6,7-dihydro-1H-imidazo[4,5-c]pyridin-5(4H)-yl)methanone], for which the AC50 (A375 R408W cells) was in the range of 0.5 to 1 µM.

Take `Cc1cc(C(=O)N2CCc3[nH]cnc3[C@H]2c2nc3cccc(F)c3o2)n(C)n1` [Example 769, (S)-(1,3-dimethyl-1H-pyrazol-5-yl)(4-(7-fluorobenzo[d]oxazol-2-yl)-6,7-dihydro-1H-imidazo[4,5-c]pyridin-5(4H)-yl)methanone]: the AC50 (A375 R408W cells) was in the range of 1 to 5 µM.

`CN(C)Cc1ccc2c(C(=O)N3CCc4[nH]cnc4C3c3nc4cc(F)ccc4o3)cnn2c1` (centres unmarked): the concentration at half-maximal activity (AC50) under setting [1] was in the range of 1 to 5 µM.

For `Cc1ncoc1C(=O)N1Cc2[nH]cnc2[C@@H]1c1nc2ccccc2o1` [Example 942, (R)-(4-(benzo[d]oxazol-2-yl)-4,6-dihydropyrrolo[3,4-d]imidazol-5(1H)-yl)(4-methyloxazol-5-yl)methanone], the half-maximal activity concentration (AC50) (A375 R408W cells) was 1 to 5 µM.

For the molecule `O=C(c1nnc(-c2ccn[nH]2)o1)N1CCc2[nH]cnc2C1c1nc2ccc(F)cc2o1` (centres unmarked), under setting [1], the AC50 was in the range of 1 to 5 µM.

With `O=C(c1ocnc1C(F)F)N1CCc2[nH]cnc2[C@@H]1c1nc2cc(Br)ccc2o1` [Example 150, (R)-(4-(5-bromobenzo[d]oxazol-2-yl)-6,7-dihydro-1H-imidazo[4,5-c]pyridin-5(4H)-yl)(4-(difluoromethyl)oxazol-5-yl)methanone], the half-maximal activity concentration (AC50) (A375 R408W cells) was at most 0.5 µM.

In the case of `CC(C)(O)c1ncc(C(=O)N2CCc3[nH]cnc3C2c2nc3ccc(F)cc3o2)o1` (centres unmarked), under setting [1], the AC50 fell in the range of 1 to 5 µM.

For the molecule `O=C(c1cnn2cc(N3CCC(F)CC3)ccc12)N1CCc2[nH]cnc2[C@@H]1c1nc2cccc(F)c2o1` [Example 370, (R)-(4-(7-fluorobenzo[d]oxazol-2-yl)-6,7-dihydro-1H-imidazo[4,5-c]pyridin-5(4H)-yl)(6-(4-fluoropiperidin-1-yl)pyrazolo[1,5-a]pyridin-3-yl)methanone], the AC50 (A375 R408W cells) lay within 1 to 5 µM.
